Data from patent US9815774B1, “Hydrodabcyl” (Universität Bayreuth, priority 2014, dated 2017).
Converted amounts (≈) assume the structure as drawn. “And” between values parts separate entries of the source, which are not always exact repeats. Equal values may be shown once. Read-outs that look alike come from different tables or passages of the source. One block for each compound: values may come before it.

What was measured:
[1] = test system: circular and linear double-stranded DNA pBR322; experiment: Electrophoretic Mobility Shift Assay (EMSA); format: binding; conditions: 24 h incubation, 0, 5, 10, 25, 50 μM, agarose gel
Protocol: The DNA was incubated for 24 hours with various concentrations (0, 5, 10, 25, 50 μM) of (a) doxorubicin and (b) Hydrodabcyl. FIGS. 6a and 6b show the ethidium bromide staining of DNA separated by agarose gel electrophoresis. […] The DNA was incubated for 24 hours with various concentrations (0, 5, 10, 25, 50 μM) of (a) doxorubicin and (b) Hydrodabcyl. FIGS. 7a and 7b show the ethidium bromide staining of DNA separated by agarose gel electrophoresis. […] Circular and linear double-stranded DNA was incubated with various concentrations of Hydrodabcyl and doxorubicin (a known intercalating substance). After 24 h of incubation time, agarose gel electrophoresis was carried out.

Absorption spectra = format: physicochemical; conditions: for ε (molar absorbance): 20° C.
Protocol: Double beam Perkin Elmer Lambda 750 UV/Vis spectrophotometer equipped with a thermostated cuvette holder was used to record the absorption spectra over a wavelength range 200-800 nm at 20° C.
The quartz cuvettes with 1 cm light path used were from Hellma.

[2] = Solubility tests in water and buffered aqueous solutions; format: physicochemical; conditions: for appearance in water: about 7 μM
[3] = Stability under light exposure; format: physicochemical; conditions: for effect of light exposure on absorption spectrum: 17.5 μM in DMSO, 5 minutes, 60 W tungsten lamp; for absorbance under 2-hour continuous irradiation at absorption maximum: spectrophotometer beam, 7200 s
Protocol: The effect of exposure to the light beam of a commercial spectrophotometer was tested to mimic the common experimental condition.
One solution of dabcyl and one of Hydrodabcyl, both at 17.5 μM in DMSO prepared in the dark, were exposed for 5 minutes to the light of a common 60 W tungsten lamp.

EaHy.926 = experiment: Cytotoxicity assay, EaHy.926; format: cell-based; conditions: Homo sapiens, EA.hy 926, incubation for 72 hours, 5 to 100 μM
Protocol: (§1) Three different cell culture types were incubated with various concentrations (from 5 to 100 μM) of Hydrodabcyl.

HT-29 = experiment: Cytotoxicity assay, HT-29; format: cell-based; conditions: Homo sapiens, incubation for 72 hours, 5 to 100 μM
Protocol: as §1

[4] = Solubility tests in water and buffered aqueous solutions; format: physicochemical; conditions: for solubility: 50 mM NaP buffer, pH 8.0
Text: The excellent solubility of the bare chromophore in aqueous solution already confers to Hydrodabcyl several practical advantages, e.g., aqueous solutions of Hydrodabcyl are easier to prepare and glassware can be more readily cleansed. Nevertheless, in most of applications the chromophores are linked to the molecules of interest. For example, to monitor protease activity chromophores are usually linked to the peptidic substrate. Both dabcyl and Hydrodabcyl can be easily coupled to an amino group through a standard amide bond formation. […] To investigate the behavior of dabcyl and Hydrodabcyl coupled to an amino acid bearing an amino group, dabcyl and Hydrodabcyl were linked to the amino group of a Lys side chain, and the solubility of the Lys-dabcyl and Lys-Hydrodabcyl moieties in a buffered aqueous solution at pH 8 were tested.
Buffered solutions (50 mM sodium phosphate) have been prepared at four different pH: 8.0, 7.0, 6.0 and 5.5, respectively. The amount of Hydrodabcyl required to reach a concentration of 5 mM was immersed in each buffer solution and kept for 1 h at 30° C. in an ultrasonic bath. […] To confirm its solubility, the absorbance of Hydrodabcyl was monitored as function of its concentration. Since the stock solution was too concentrated to be measured directly, three diluted solutions with different concentrations (10 μM, 20 μM and 30 μM) were prepared from each stock solution at pH 8.0, pH 7.0 and pH 6.0. The aliquots have been taken from different part of the volume of the stock solution to test the homogeneity.
To reach complete solubility at pH<6.0, the pH of the stock solution (5 mM range) at pH 7.0 was decreased at the desired value with few drops of 5M HCl. Following gradual acidification of the medium the mM solution of Hydrodabcyl remained clear till pH 4.3. […] At pH<4.3 Hydrodabcyl precipitates.

CHF = experiment: Cytotoxicity assay, CHF; format: cell-based; conditions: incubation for 72 hours, 5 to 100 μM
Protocol: as §1

[5] = test system: oocytes of Xenopus laevis; experiment: Influence on embryogenesis of injected oocytes; format: in vivo; conditions: conclusion from Table 2
Protocol: Two sorts of labelled molecules were injected into oocytes of Xenopus laevis: • A molecule labelled with monobromobimane (mBBr; a fluorescent dye, which emits light in the absorption spectrum of Hydrodabcyl); the molecule is called Substrate-Bim • A molecule labelled with mBBr and Hydrodabcyl (a fluorescence quencher); the molecule is called Bim-Substrate-Hydrodabcyl The effect on embryogenesis of the molecules injected into the oocytes as described in Example 5 was observed.

[6] = water, reported [8]; cited from earlier work
[7] = sodium phosphate buffer, aqueous buffer, thermodynamic from solid, read-out: Solubility

ε (molar absorbance) (Absorption spectra; 50 mM sodium phosphate buffer pH=8.0, 2×10^−5 M, at 445 nm): 43000 ± 1000 L/mol/cm
λmax (Absorption spectra; 2×10^−5 M in DMSO at 20° C.): 470 nm
ε470 (molar absorbance) (Absorption spectra; DMSO): 37000 M⁻¹ cm⁻¹
ε (molar absorbance) (Absorption spectra; DMSO, 2×10^−5 M, at 470 nm): 37000 ± 1000 L/mol/cm
ε445 (molar absorbance) (Absorption spectra; aqueous solution): 43000 M⁻¹ cm⁻¹
λmax (Absorption spectra; aqueous solution, 50 mM sodium phosphate buffer pH=8.0, 20° C.): 445 nm
solubility ([2]; thermodynamic from solid, Water, 20° C., pH = 4.5, read-out: Solubility): 571 µM (≈ 181 µg/mL)
appearance in water ([2]; water): clear solution
effect of light exposure on absorption spectrum [3]: no effect on the absorption spectrum
absorbance under 2-hour continuous irradiation at absorption maximum ([3]; DMSO, 20° C.): constant signal
dissolution at 5 mM, direct preparation ([4]; 50 mM sodium phosphate pH 5.5, 1 h at 30° C. ultrasonic bath): not completely soluble
dissolution at 5 mM, direct preparation ([4]; 50 mM sodium phosphate pH 6.0, 1 h at 30° C. ultrasonic bath): Clear solutions
dissolution at 5 mM, direct preparation ([4]; 50 mM sodium phosphate pH 7.0, 1 h at 30° C. ultrasonic bath): Clear solutions
dissolution at 5 mM, direct preparation ([4]; 50 mM sodium phosphate pH 8.0, 1 h at 30° C. ultrasonic bath): Clear solutions
solubility thermodynamic ([4]; aqueous buffer, thermodynamic from solid, buffered aqueous solution at pH 8, read-out: concentration of saturated solution): 25000 µM (≈ 7930 µg/mL)
solubility [4, 7]: 25400 µM (≈ 8060 µg/mL)
influence on embryogenesis [5]: does not influence embryogenesis
Compound: CN(C)c1cc(O)c(/N=N/c2ccc(C(=O)O)c(O)c2)c(O)c1 [Hydrodabcyl, 4-((4′-(dimethylamino)2′,6′-dihydroxyphenyl)azo)2-hydroxybenzoic acid]
shift of DNA bands / intercalation into DNA [1]: does not intercalate or bind to the DNA
IC50 (EaHy.926): > 50 µM
IC50 (HT-29): > 50 µM
IC50 (CHF): > 100 µM

solubility ([2]; water, converted from 5.8 g per 1 kg): about 40 mM
Compound: NCCCC[C@H](N)C(=O)O [L-Lys, reference compound]
solubility [6]: 5.8 g per 1 kg of water

Compound: COc1cccc2c1C(=O)c1c(O)c3c(c(O)c1C2=O)C[C@@](O)(C(=O)CO)C[C@@H]3O[C@H]1C[C@H](N)[C@H](O)[C@H](C)O1 [doxorubicin, reference compound]
shift of DNA bands / intercalation into DNA [1]: shift of the DNA bands with increasing doxorubicin concentration

solubility [4]: 7.6 µM and 7.62 µM
Compound: CN(C)c1ccc(N=Nc2ccc(C(=O)NCCCCC(N)C(=O)O)cc2)cc1 (stereo not shown) [Lys-dabcyl, reference compound]

λmax (Absorption spectra; 2×10^−5 M in DMSO at 20° C.): 451 nm
appearance in water ([2]; water): precipitation
effect of light exposure on absorption spectrum [3]: strongly modify the absorption spectrum
absorbance under 2-hour continuous irradiation at absorption maximum ([3]; DMSO, 20° C.): constant signal
time in the dark to recover original spectrum ([3]; after 5 min 60 W tungsten lamp, DMSO, 20° C.): 10 min
solubility [4, 7]: 541 µM (≈ 146 µg/mL)
Compound: CN(C)c1ccc(/N=N/c2ccc(C(=O)O)cc2)cc1 [dabcyl, 4-(4′-dimethylamino-phenylazo)benzoic acid]
